Measurements: article PMC9775191, “A Subset Screen of the Compounds Australia Scaffold Library Identifies 7-Acylaminodibenzoxazepinones as Potent and Selective Hits for Anti-Giardia Drug Discovery” (Biomedicines, 2022)

Test system: G. duodenalis BRIS/91/HEPU/1279
Assay: Primary Giardia screen at 10 µM (live-cell imaging, automated counting)
Assay type: cell-based, Giardia duodenalis
Conditions: for % Inhibition n=1 48h / % Inhibition n=1 24h: first singlicate assay; for % Inhibition n=2 24h / % Inhibition n=2 48h: re-assessment
Summary of the method: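 Compounds were tested once each at 10 μM final (0.2% DMSO) in culture medium under 3% O2, 5% CO2 in N2. Growth was read at 24 and 48 h by live-cell imaging with automated counting, and inhibition expressed as percent growth versus 0.2% DMSO vehicle after media-only background subtraction.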

SMILES | % Inhibition n=1 48h [%] | also measured
Cc1cc(Cl)ccc1OCCCC(=O)Nc1nc2ccccc2[nH]1 [SN00783684] | 27.8 | 
Cc1ccc(NC(=O)c2cnc3c(c2)c(=O)n(C)c(=O)n3-c2ccccc2)cc1 [SN00799453] | 0.0 | 
COc1ccc(Cl)cc1NC(=O)Nc1ccc2c(c1)CN(Cc1ccccc1)C2 [SN00796317] | 57.6 | Average % Inhibition 24h: 8.8%; % Inhibition n=1 24h: 17.7%; % Inhibition n=2 24h: 0.0%; Average % Inhibition 48h: 37.5%; % Inhibition n=2 48h: 17.4%
CN1C(=O)c2cc(NC(=O)c3ccc4c(c3)OCO4)ccc2N2CCN=C12 [SN00784190] | 31.6 | 
COc1ccc(-c2csc(-n3nccc3C(F)(F)F)n2)cc1OC [SN00776140] | 27.9 | 
COC(=O)c1c(C(=O)OC)c(-c2ccc(NS(=O)(=O)c3ccc(C)s3)cc2)n2c1CCC2 [SN00780656] | 9.3 | 
CCn1nc(C(=O)NCCOc2ccccc2)cc1-c1cc(C)sc1C [SN00802783] | 0.0 | 
Cc1cc(N2C(=O)C(O)=C(C(=O)c3ccc(Cl)cc3)C2c2ccc([N+](=O)[O-])cc2)no1 (centres unmarked) [SN00780175] | 59.1 | Average % Inhibition 24h: 6.4%; % Inhibition n=1 24h: 12.8%; % Inhibition n=2 24h: 0.0%; Average % Inhibition 48h: 29.6%; % Inhibition n=2 48h: 0.0%
O=C(NC(c1ccccc1)C1CC1)c1ccc2c(c1)S(=O)(=O)Nc1ncnn1-2 (centres unmarked) [SN00773273] | 0.0 | 
Cc1cccc2c1NC1(CCN(S(=O)(=O)c3ccc(C(C)(C)C)cc3)CC1)NC2=O [SN00802737] | 13.3 | 
CC(C)n1nc2c(cc1=O)CN(Cc1nc(-c3ccoc3)no1)CC2 [SN00773517] | 10.7 | 
COC(=O)c1cn(CC(=O)NCc2cc3c(cc2C)OCCCO3)c2ccccc12 [SN00794141] | 14.4 | 
O=C(c1cc2occc2c(Nc2ccc(F)cc2)n1)N1CCN(c2ccccn2)CC1 [SN00790827] | 53.8 | Average % Inhibition 24h: 14.2%; % Inhibition n=1 24h: 21.9%; % Inhibition n=2 24h: 6.5%; Average % Inhibition 48h: 31.0%; % Inhibition n=2 48h: 8.1%
COc1ccc(CCNS(=O)(=O)c2cccc(-c3nc(-c4ccc(C)cc4)no3)c2)cc1OC [SN00797669] | 6.7 | 
COc1ccc(C2NC(=O)NC(C)=C2C(=O)c2ccccc2)cc1 (centres unmarked) [SN00802824] | 12.9 | 
Cn1c(C(=O)NCc2ccc(F)cc2)cc2c(=O)n3ccccc3nc21 [SN00787284] | 0.0 | 
Cc1ccc(-c2cc(C(=O)NCc3cn(C)nc3C)c3ccccc3n2)cc1C [SN00783737] | 0.0 | 
CC1(c2ccco2)NC(=O)N(CC(=O)c2ccccc2)C1=O (centres unmarked) [SN00771276] | 12.8 | 

SMILES | % Inhibition n=1 48h [%] | also measured
Cc1ccc(-c2noc(-c3ccc(N4CCN(Cc5ccc6c(c5)OCO6)CC4)nc3)n2)cc1 [SN00796635] | 7.2 | 
Cc1cccc(-c2noc(C3CCCN3S(=O)(=O)c3ccc(C(C)(C)C)cc3)n2)c1 (centres unmarked) [SN00797487] | 0.0 | 
O=c1onc(-c2cccnc2)n1Cc1noc(C2CC2)n1 [SN00772712] | 0.0 | 
CCCNC(=O)CCNC(=O)N1CCCC1c1nc2cc(C)ccc2[nH]1 (centres unmarked) [SN00776915] | 37.1 | 
CC1(C)C(NC(=O)Nc2ccc([N+](=O)[O-])cc2)C2CCCOC21 (centres unmarked) [SN00782105] | 16.3 | 
Cc1nc(-c2cc(S(=O)(=O)N3CCCCCC3)c(C)s2)sc1C [SN00797236] | 11.8 | 
CC(C)S(=O)(=O)N1CCC(N(C)C2CCOCC2)CC1 [SN00801518] | 0.0 | 
Cc1nn(C)c2sc(C(=O)N3CCN(S(=O)(=O)c4ccc(Br)cc4)CC3)cc12 [SN00774390] | 10.6 | 
Cc1cc(C2CCCN2Cc2sccc2C)on1 (centres unmarked) [SN00793909] | 2.5 | 
CCCC(=O)Nc1cc(F)c2nc(N3CCCCC3)ccc2c1 [SN00795955] | 0.0 | 
O=S(=O)(Cc1ccccc1)Nc1cccc(-c2nnc(Cc3ccc4c(c3)OCO4)o2)c1 [SN00795993] | 80.2 | Average % Inhibition 24h: 17.2%; % Inhibition n=1 24h: 34.4%; % Inhibition n=2 24h: 0.0%; Average % Inhibition 48h: 46.9%; % Inhibition n=2 48h: 13.6%
CCCCC(=O)N1CCN(S(=O)(=O)c2c[nH]c3ncccc23)CC1 [SN00781078] | 2.4 | 
O=C(NC1CCN(c2cc(-c3cccs3)n[nH]2)C1)c1ccc2[nH]cnc2c1 (centres unmarked) [SN00800411] | 29.6 | 
Cn1nc2c(c1NC(=O)c1cccc(NC(=O)C(C)(C)C)c1)CCC2 [SN00777576] | 0.0 | 
COc1cc(C(=O)N2C(=O)N(c3ccc(F)cc3)C3(C)CC2c2ccccc2O3)cc(OC)c1OC (centres unmarked) [SN00784661] | 3.1 | 
Cc1nn(-c2ccccc2)c2c1C(C(=O)NC1CCCC1)N(c1ccc(F)cc1F)C(=O)CS2 (centres unmarked) [SN00791377] | 1.8 | 
CN(C)C(=O)CN1CCCN(Cc2ncc(C(C)(C)C)o2)CC1 [SN00778763] | 1.9 | 
CCn1cc(C2OCCC2CNC/C=C/c2ccccc2OC)cn1 (centres unmarked) [SN00782244] | 28.6 | 
